Laboratory results as given in ChEMBL document CHEMBL1141678 (Eur J Med Chem, 2008).

Experiments:
Cytochrome P450 2B6 [1] = target: T1, Cytochrome P450 2B6 (Homo sapiens, UniProt P20813); experiment: Inhibition of human recombinant CYP2B6 at 100 uM; assay type: ADME; conditions: recombinant enzyme
T1 sequence (P20813 whole entry): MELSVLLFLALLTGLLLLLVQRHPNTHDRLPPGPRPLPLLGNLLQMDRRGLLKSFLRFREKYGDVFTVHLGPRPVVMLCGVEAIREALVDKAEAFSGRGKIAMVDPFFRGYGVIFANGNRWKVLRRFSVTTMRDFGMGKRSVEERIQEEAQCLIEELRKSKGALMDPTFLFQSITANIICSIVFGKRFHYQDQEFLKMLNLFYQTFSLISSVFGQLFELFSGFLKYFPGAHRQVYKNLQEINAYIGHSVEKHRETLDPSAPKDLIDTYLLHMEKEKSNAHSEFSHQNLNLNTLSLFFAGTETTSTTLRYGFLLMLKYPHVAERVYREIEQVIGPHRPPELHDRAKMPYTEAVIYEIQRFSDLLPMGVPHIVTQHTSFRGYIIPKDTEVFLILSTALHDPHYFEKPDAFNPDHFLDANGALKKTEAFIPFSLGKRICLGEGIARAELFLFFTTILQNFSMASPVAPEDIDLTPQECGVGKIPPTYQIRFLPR

Cytochrome P450 2B6 [2] = target: T1, Cytochrome P450 2B6; experiment: Inhibition of human recombinant CYP2B6 in presence of reduced glutathione; assay type: ADME; conditions: recombinant enzyme
Cytochrome P450 2D6 [3] = target: T2, Cytochrome P450 2D6 (Homo sapiens, UniProt P10635); experiment: Inhibition of human recombinant CYP2D6 at 100 uM; assay type: ADME; conditions: recombinant enzyme
T2 sequence (P10635 whole entry): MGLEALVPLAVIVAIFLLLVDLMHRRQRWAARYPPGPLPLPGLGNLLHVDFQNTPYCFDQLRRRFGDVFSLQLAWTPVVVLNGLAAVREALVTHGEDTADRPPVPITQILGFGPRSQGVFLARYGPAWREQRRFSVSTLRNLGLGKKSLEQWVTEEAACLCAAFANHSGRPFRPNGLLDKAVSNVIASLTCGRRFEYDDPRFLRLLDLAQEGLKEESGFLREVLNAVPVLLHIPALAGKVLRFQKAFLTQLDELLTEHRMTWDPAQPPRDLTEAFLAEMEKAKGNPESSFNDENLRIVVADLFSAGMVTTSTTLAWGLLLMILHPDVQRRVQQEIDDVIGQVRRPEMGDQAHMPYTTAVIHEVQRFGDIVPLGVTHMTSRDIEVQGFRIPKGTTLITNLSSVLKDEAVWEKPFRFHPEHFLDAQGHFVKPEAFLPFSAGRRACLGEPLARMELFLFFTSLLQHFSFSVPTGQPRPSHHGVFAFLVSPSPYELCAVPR

Cytochrome P450 2D6 [4] = target: T2, Cytochrome P450 2D6; experiment: Inhibition of human recombinant CYP2D6 in presence of reduced glutathione; assay type: ADME; conditions: recombinant enzyme
Cytochrome P450 3A4 [5] = target: T3, Cytochrome P450 3A4 (Homo sapiens, UniProt P08684); experiment: Inhibition of human recombinant CYP3A4 in presence of reduced glutathione; assay type: ADME; conditions: recombinant enzyme
T3 sequence (P08684 whole entry): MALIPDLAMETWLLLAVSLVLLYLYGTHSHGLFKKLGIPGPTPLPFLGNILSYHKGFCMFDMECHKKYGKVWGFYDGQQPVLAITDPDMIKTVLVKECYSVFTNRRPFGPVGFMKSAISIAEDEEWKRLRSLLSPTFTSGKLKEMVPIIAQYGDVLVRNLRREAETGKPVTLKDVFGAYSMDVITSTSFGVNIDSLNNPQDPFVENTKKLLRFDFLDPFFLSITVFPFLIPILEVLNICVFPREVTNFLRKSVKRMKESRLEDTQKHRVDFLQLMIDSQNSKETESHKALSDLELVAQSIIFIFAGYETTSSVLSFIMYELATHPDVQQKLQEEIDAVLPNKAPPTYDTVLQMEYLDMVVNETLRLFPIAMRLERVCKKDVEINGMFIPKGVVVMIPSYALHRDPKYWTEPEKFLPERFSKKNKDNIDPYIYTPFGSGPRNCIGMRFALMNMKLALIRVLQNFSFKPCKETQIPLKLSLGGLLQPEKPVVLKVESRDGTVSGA

Cytochrome P450 3A4 [6] = target: T3, Cytochrome P450 3A4; experiment: Inhibition of human recombinant CYP3A4 at 100 uM; assay type: ADME; conditions: recombinant enzyme
Cytochrome P450 2C9 [7] = target: T4, Cytochrome P450 2C9 (Homo sapiens, UniProt P11712); experiment: Inhibition of human recombinant CYP2C9 in presence of reduced glutathione; assay type: ADME; conditions: recombinant enzyme
T4 sequence (P11712 whole entry): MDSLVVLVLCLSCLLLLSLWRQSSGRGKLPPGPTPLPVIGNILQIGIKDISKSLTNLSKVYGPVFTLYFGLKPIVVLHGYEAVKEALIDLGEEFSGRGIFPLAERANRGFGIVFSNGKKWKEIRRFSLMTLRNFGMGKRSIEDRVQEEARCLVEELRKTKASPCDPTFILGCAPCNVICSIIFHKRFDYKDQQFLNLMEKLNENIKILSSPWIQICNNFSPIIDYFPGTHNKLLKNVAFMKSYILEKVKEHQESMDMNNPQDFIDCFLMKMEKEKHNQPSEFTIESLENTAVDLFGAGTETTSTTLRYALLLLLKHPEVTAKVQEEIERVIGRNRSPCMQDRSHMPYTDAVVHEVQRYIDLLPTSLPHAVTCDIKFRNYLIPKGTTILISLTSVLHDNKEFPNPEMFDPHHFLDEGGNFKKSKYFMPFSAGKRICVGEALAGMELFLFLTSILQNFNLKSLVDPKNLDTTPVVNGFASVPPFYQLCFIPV

Cytochrome P450 2D6 [8] = target: T2, Cytochrome P450 2D6; experiment: Inhibition of human recombinant CYP2D6; assay type: ADME
Cytochrome P450 1A2 = target: T5, Cytochrome P450 1A2 (Homo sapiens, UniProt P05177); experiment: Inhibition of human recombinant CYP1A2; conditions: for log(1/IC50): human
T5 sequence (P05177 whole entry): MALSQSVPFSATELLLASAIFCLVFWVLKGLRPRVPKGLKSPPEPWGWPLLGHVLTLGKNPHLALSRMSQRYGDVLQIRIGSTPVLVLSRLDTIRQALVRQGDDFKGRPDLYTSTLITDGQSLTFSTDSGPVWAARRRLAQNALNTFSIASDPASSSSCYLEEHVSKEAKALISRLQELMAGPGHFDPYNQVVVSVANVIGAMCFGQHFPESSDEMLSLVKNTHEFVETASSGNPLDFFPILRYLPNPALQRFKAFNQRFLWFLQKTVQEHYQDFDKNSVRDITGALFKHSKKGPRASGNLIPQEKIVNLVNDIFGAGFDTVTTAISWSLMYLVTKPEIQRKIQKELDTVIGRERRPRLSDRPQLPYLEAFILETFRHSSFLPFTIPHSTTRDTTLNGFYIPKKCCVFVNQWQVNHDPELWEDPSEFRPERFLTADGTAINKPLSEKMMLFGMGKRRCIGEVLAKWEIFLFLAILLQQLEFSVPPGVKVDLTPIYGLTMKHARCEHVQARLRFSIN

Cytochrome P450 2C9 [9] = target: T4, Cytochrome P450 2C9; experiment: Inhibition of human recombinant CYP2C9; assay type: ADME
Cytochrome P450 3A4 [10] = target: T3, Cytochrome P450 3A4; experiment: Inhibition of human recombinant CYP3A4; assay type: ADME

| Compound | Activity (Cytochrome P450 2B6 [1]) | Activity (Cytochrome P450 2B6 [2]) | Activity (Cytochrome P450 2D6 [3]) | Activity (Cytochrome P450 2D6 [4]) | Activity (Cytochrome P450 3A4 [5]) | Activity (Cytochrome P450 3A4 [6]) | Activity (Cytochrome P450 2C9 [7]) | IC50 (Cytochrome P450 2D6 [8]) | IC50 (Cytochrome P450 1A2) | log(1/IC50) (Cytochrome P450 1A2) | log(1/IC50) (Cytochrome P450 1A2; recombinant CYP1A2) | IC50 (Cytochrome P450 2C9 [9]) | IC50 (Cytochrome P450 3A4 [10]) |
| --- | --- | --- | --- | --- | --- | --- | --- | --- | --- | --- | --- | --- | --- |
| Cc1cc(/C=C2\CCC/C(=C\c3cc(C)c(O)c(C)c3)C2=O)cc(C)c1O | Not Active | Not Active | Not Active | Not Active | Not Active | Not Active | Not Active |  |  |  |  |  |  |
| COc1cc(/C=C/C(=O)/C=C/c2ccc(O)c(OC)c2)ccc1O |  | Not Active |  | Not Active | Not Active |  | Not Active | 0.6 µM | 41.5 µM | 1.382 |  |  |  |
| O=C(/C=C/c1ccc(C(F)(F)F)cc1)/C=C/c1ccc(C(F)(F)F)cc1 |  | Not Active |  | Not Active | Not Active |  | Not Active |  | 4 µM |  | 2.398 |  |  |
| COc1cc(/C=C2\CC/C(=C\c3ccc(O)c(OC)c3)C2=O)ccc1O |  | Not Active |  | Not Active | Not Active |  | Not Active |  | 38.9 µM |  | 1.41 | 2.8 µM | 64.9 µM |
| O=C1/C(=C/c2ccc(C(F)(F)F)cc2)CC/C1=C\c1ccc(C(F)(F)F)cc1 |  | Not Active |  | Not Active | Not Active |  | Not Active |  |  |  |  |  |  |
| O=C(/C=C/c1ccc(O)cc1)/C=C/c1ccc(O)cc1 |  | Not Active |  | Not Active | Not Active |  | Not Active | 2 µM |  |  |  | 1.8 µM |  |
| CN(C)c1ccc(/C=C2\CCC/C(=C\c3ccc(N(C)C)cc3)C2=O)cc1 | Not Active | Not Active | Not Active | Not Active | Not Active | Not Active | Not Active |  | 2.6 µM |  | 2.585 |  |  |
| CCc1cc(/C=C2\CC/C(=C\c3cc(CC)c(O)c(CC)c3)C2=O)cc(CC)c1O |  | Not Active |  | Not Active | Not Active |  | Not Active |  | 36.7 µM | 1.435 |  | 37.7 µM | 73.5 µM |
| O=C(/C=C/c1ccc(Cl)c(Cl)c1)/C=C/c1ccc(Cl)c(Cl)c1 |  | Not Active |  | Not Active | Not Active |  | Not Active |  |  |  |  |  |  |
| CN(C)c1ccc(/C=C2\CC/C(=C\c3ccc(N(C)C)cc3)C2=O)cc1 |  | Not Active |  | Not Active | Not Active |  | Not Active |  |  |  |  |  |  |
| CC(C)(C)c1ccc(/C=C/C(=O)/C=C/c2ccc(C(C)(C)C)cc2)cc1 |  | Not Active |  | Not Active | Not Active |  | Not Active |  | 28 µM |  | 1.553 |  |  |
| Cc1ccc(/C=C/C(=O)/C=C/c2ccc(C)cc2)cc1 |  | Not Active |  | Not Active | Not Active |  | Not Active |  |  |  |  |  |  |
| COc1ccc(/C=C2\CC/C(=C\c3ccc(OC)cc3)C2=O)cc1 |  | Not Active |  | Not Active | Not Active |  | Not Active |  |  |  |  |  |  |
| O=C1/C(=C/c2cccc(Cl)c2)CCC/C1=C\c1cccc(Cl)c1 | Not Active | Not Active | Not Active | Not Active | Not Active | Not Active | Not Active |  | 3.4 µM |  | 2.469 |  |  |
| O=C1/C(=C/c2ccc(O)cc2)CC/C1=C\c1ccc(O)cc1 |  | Not Active |  | Not Active | Not Active |  | Not Active |  | 45.6 µM |  | 1.341 | 9.9 µM | 5.1 µM |
